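How tested: cells in 96-well plates exposed to compound for 48 hours at five concentrations. Abbreviation: GI50, concentration required for 50% inhibition of growth.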 Activity calls are given as the source filed them. Cut-off read from the data, not from the text of the source: active = GI50 up to about 1.1 µM and inactive = higher.
Assays:
Test in all cases: NCI-60 cell line screen, 48 h
HCT-15 = system: HCT-15
RXF 393 = system: RXF 393
UACC-62 = system: UACC-62
HT-29 = system: HT-29
MCF7 = system: MCF7
CCRF-CEM = system: CCRF-CEM
SF-268 = system: SF-268
Hs-578T = system: Hs-578T
M14 = system: M14
NCI-H522 = system: NCI-H522
MOLT-4 = system: MOLT-4
SF-539 = system: SF-539
SNB-19 = system: SNB-19
LOX IMVI = system: LOX IMVI
U-251 = system: U-251
SK-MEL-2 = system: SK-MEL-2
HCC 2998 = system: HCC 2998
NCI-H460 = system: NCI-H460

SMILES	GI50 (HCT-15)	GI50 (RXF 393)	GI50 (UACC-62)	GI50 (HT-29)	GI50 (MCF7)	GI50 (CCRF-CEM)	GI50 (SF-268)	GI50 (Hs-578T)	GI50 (M14)	GI50 (NCI-H522)	GI50 (MOLT-4)	GI50 (SF-539)	GI50 (SNB-19)	GI50 (LOX IMVI)	GI50 (U-251)	GI50 (SK-MEL-2)	GI50 (HCC 2998)	GI50 (NCI-H460)
CN1C(=O)N(C)C2(CCN(CC(CC3OCCO3)c3ccc(F)cc3)CC2)C1=O (stereo not given)	> 100 µM	> 100 µM (inactive)	> 100 µM (inactive)	> 100 µM (inactive)	> 100 µM (inactive)	> 100 µM (inactive)	> 100 µM (inactive)	> 100 µM (inactive)	> 100 µM (inactive)	> 100 µM (inactive)	> 100 µM (inactive)	> 100 µM (inactive)	> 100 µM (inactive)	> 100 µM (inactive)	> 100 µM (inactive)	> 100 µM (inactive)		
COC(=O)/C=C1\C(=O)Nc2ccc(Br)cc21	1.16 µM	1.54 µM (inactive)	1.56 µM (inactive)	1.73 µM (inactive)	1.46 µM (inactive)	0.296 µM (active)	3.49 µM (inactive)	4.04 µM (inactive)	2.24 µM (inactive)	0.743 µM (active)	0.962 µM (active)		3.24 µM (inactive)	0.804 µM (active)	2.03 µM (inactive)	0.493 µM (active)	2.22 µM (inactive)	2.25 µM (inactive)
COc1ccc(C(=O)/C=C/c2ccc(OCCSCCCCCCCCCCSCCOc3ccc(/C=C/C(=O)c4ccc(OC)cc4)cc3)cc2)cc1	> 100 µM	> 100 µM (inactive)	> 100 µM (inactive)	> 100 µM (inactive)	> 100 µM (inactive)	> 100 µM (inactive)	> 100 µM (inactive)	> 100 µM (inactive)	> 100 µM (inactive)		> 100 µM (inactive)	> 100 µM (inactive)	> 100 µM (inactive)		> 100 µM (inactive)	> 100 µM (inactive)	> 100 µM (inactive)	> 100 µM (inactive)
CC(C)[C@@H]1CC[C@@H](C)C[C@H]1OC(=O)/C=C1\C(C(=O)O[C@@H]2C[C@H](C)CC[C@H]2C(C)C)[C@H]2C=C[C@@H]1O2 (stereo not given in full)	92.3 µM	> 100 µM (inactive)	92.5 µM (inactive)	33.4 µM (inactive)	25.1 µM (inactive)	23.4 µM (inactive)	76.4 µM (inactive)	72.3 µM (inactive)	89.5 µM (inactive)	22.5 µM (inactive)	35.8 µM (inactive)	> 100 µM (inactive)	> 100 µM (inactive)	34.1 µM (inactive)	51.4 µM (inactive)		29.1 µM (inactive)	37.9 µM (inactive)
S=C(NCc1ccccc1)N/N=C/c1ccccn1	1.26 µM		3.27 µM (inactive)	0.743 µM (active)	0.834 µM (active)	< 0.0409 µM (active)	1.42 µM (inactive)	14.8 µM (inactive)	0.5 µM (active)	0.982 µM (active)	0.0612 µM (active)	4.6 µM (inactive)	7.93 µM (inactive)	1.53 µM (inactive)	2.97 µM (inactive)	14.1 µM (inactive)	6.31 µM (inactive)	2.04 µM (inactive)
CC(C)N1[C@@H]2CCCC[C@H]2N(C(C)C)[PH]1=O	> 100 µM	> 100 µM (inactive)	> 100 µM (inactive)	> 100 µM (inactive)	> 100 µM (inactive)	> 100 µM (inactive)	> 100 µM (inactive)	> 100 µM (inactive)	> 100 µM (inactive)	> 100 µM (inactive)	> 100 µM (inactive)	> 100 µM (inactive)					> 100 µM (inactive)	> 100 µM (inactive)
COc1cc(Nc2ccc3c(c2)CCC3)nc(OC)n1	27.8 µM		51.3 µM (inactive)	19.9 µM (inactive)	29.6 µM (inactive)	49.7 µM (inactive)	23.9 µM (inactive)	6.58 µM (inactive)	43.3 µM (inactive)	21.4 µM (inactive)	0.0144 µM (active)	38.9 µM (inactive)	43.6 µM (inactive)	45.7 µM (inactive)	> 100 µM (inactive)	33 µM (inactive)	29.7 µM (inactive)	30.8 µM (inactive)
NS(=O)(=O)c1ccc(/N=N/c2ccc(O)c(C(=O)O)c2)cc1 [SALAZOSULFAMIDE]	> 100 µM	> 100 µM (inactive)	> 100 µM (inactive)	> 100 µM (inactive)	> 100 µM (inactive)		> 100 µM (inactive)	23.6 µM (inactive)	> 100 µM (inactive)	82.4 µM (inactive)	> 100 µM (inactive)		> 100 µM (inactive)		> 100 µM (inactive)	20.7 µM (inactive)	> 100 µM (inactive)	> 100 µM (inactive)
O=C1c2cn[nH]c2N=C(Nc2ccccc2)C1/N=C/c1ccc([N+](=O)[O-])cc1 (stereo not given)				> 10 µM (inactive)	> 10 µM (inactive)	> 10 µM (inactive)	> 10 µM (inactive)	> 10 µM (inactive)	> 10 µM (inactive)	> 10 µM (inactive)	> 10 µM (inactive)	> 10 µM (inactive)	> 10 µM (inactive)	> 10 µM (inactive)	> 10 µM (inactive)		> 10 µM (inactive)	> 10 µM (inactive)
Cc1nnc(-n2c(O)cc(=O)n(-c3ccccc3)c2=S)nc1/C=C/c1ccc(N(C)C)cc1	4.88 µM	17.5 µM (inactive)	6.53 µM (inactive)	5 µM (inactive)	3.42 µM (inactive)	8.2 µM (inactive)	22.4 µM (inactive)	4.99 µM (inactive)	13.7 µM (inactive)	1.32 µM (inactive)	15.6 µM (inactive)		20.4 µM (inactive)	4.32 µM (inactive)	10.1 µM (inactive)	10.9 µM (inactive)	6.49 µM (inactive)	8.79 µM (inactive)
Cc1oc2c(cc(O)c3ccccc32)c2cccc1-2	99.5 µM			> 100 µM (inactive)	> 100 µM (inactive)	> 100 µM (inactive)	> 100 µM (inactive)	> 100 µM (inactive)	24.1 µM (inactive)		> 100 µM (inactive)	> 100 µM (inactive)	> 100 µM (inactive)	> 100 µM (inactive)	> 100 µM (inactive)		> 100 µM (inactive)	> 100 µM (inactive)
O=C(OCCC12CC3CC(CC(C3)C1)C2)c1ccc(NCc2cc(O)ccc2O)cc1	0.611 µM	0.638 µM (active)	1.61 µM (inactive)	1.94 µM (inactive)	0.557 µM (active)	0.101 µM (active)	2.49 µM (inactive)	0.213 µM (active)	1.24 µM (inactive)	0.148 µM (active)	0.262 µM (active)	0.652 µM (active)	1.26 µM (inactive)	0.757 µM (active)	0.445 µM (active)	1.24 µM (inactive)		1.51 µM (inactive)
CC(C)=CCC[C@@H](C)C1=C(O)C(=O)C(C)=C(Nc2ccccc2I)C1=O	6.56 µM	13.2 µM (inactive)	9.27 µM (inactive)	14 µM (inactive)	23.2 µM (inactive)	3.03 µM (inactive)	11.3 µM (inactive)	9.12 µM (inactive)	17 µM (inactive)		2.22 µM (inactive)	9.23 µM (inactive)	25.4 µM (inactive)	5.73 µM (inactive)	7.01 µM (inactive)	10.8 µM (inactive)	16.6 µM (inactive)	10.1 µM (inactive)
CC(=O)OC1CC[C@]2(C)C3CC[C@@]4(C)C(CCC4[C@H](C)CCCC(C)C)[C@@H]3CCC2(Br)C1 (stereo not given in full)	15.1 µM	12.1 µM (inactive)	21 µM (inactive)	17.5 µM (inactive)	10.5 µM (inactive)	10.2 µM (inactive)	11.7 µM (inactive)	10.1 µM (inactive)	18.5 µM (inactive)	10.3 µM (inactive)	9.98 µM (inactive)	9.18 µM (inactive)	27.4 µM (inactive)	11.6 µM (inactive)	17.9 µM (inactive)		> 50 µM (inactive)	39.7 µM (inactive)
Cc1oc2nc1C(=O)NCc1nc(cs1)C(=O)N[C@H](C(C)C)c1nc(cs1)C(=O)N[C@H]2C	52.8 µM	8.34 µM (inactive)	81.5 µM (inactive)	65 µM (inactive)	82.2 µM (inactive)	> 100 µM (inactive)	85.5 µM (inactive)	75.3 µM (inactive)	> 100 µM (inactive)	26.7 µM (inactive)	81.7 µM (inactive)	42.3 µM (inactive)	> 100 µM (inactive)		> 100 µM (inactive)		43.7 µM (inactive)	66.7 µM (inactive)
NC(CP(=O)(O)O)C(=O)O (stereo not given)	> 100 µM	> 100 µM (inactive)	> 100 µM (inactive)	> 100 µM (inactive)	> 100 µM (inactive)	> 100 µM (inactive)	> 100 µM (inactive)	> 100 µM (inactive)	> 100 µM (inactive)	> 100 µM (inactive)	> 100 µM (inactive)		> 100 µM (inactive)	43.6 µM (inactive)	> 100 µM (inactive)	> 100 µM (inactive)	> 100 µM (inactive)	> 100 µM (inactive)
C[C@]12CC[C@H]3[C@@H](CC=C4C[C@@H](N5CCCC5)CC[C@@]43C)[C@@H]1C/C(=C\c1ccc([N+](=O)[O-])cc1)[C@@H]2O	13.8 µM	19.9 µM (inactive)	15.8 µM (inactive)	13.2 µM (inactive)	20.7 µM (inactive)	3.21 µM (inactive)	17.5 µM (inactive)	18.5 µM (inactive)	16.6 µM (inactive)	17.1 µM (inactive)	0.942 µM (active)	15.4 µM (inactive)	24.7 µM (inactive)	16.4 µM (inactive)	12.7 µM (inactive)	> 10 µM (inactive)		28.1 µM (inactive)

From ChEMBL document CHEMBL1201862, “PubChem BioAssay data set” (2004)
